6 molecules from patent US20230346961A1, “GLP-1 AND GIP RECEPTOR CO-AGONISTS” (Novo Nordisk A/S, priority 2020, published 2023) can be followed below.

The target in one assay is human GLP-1 receptor (Homo sapiens, UniProt P43220). In words: cell-based. As to conditions: hGLP-1R.
The next assay addresses T1, mouse GIP receptor (Mus musculus, UniProt Q0P543).
T1 sequence (Q0P543 19-460): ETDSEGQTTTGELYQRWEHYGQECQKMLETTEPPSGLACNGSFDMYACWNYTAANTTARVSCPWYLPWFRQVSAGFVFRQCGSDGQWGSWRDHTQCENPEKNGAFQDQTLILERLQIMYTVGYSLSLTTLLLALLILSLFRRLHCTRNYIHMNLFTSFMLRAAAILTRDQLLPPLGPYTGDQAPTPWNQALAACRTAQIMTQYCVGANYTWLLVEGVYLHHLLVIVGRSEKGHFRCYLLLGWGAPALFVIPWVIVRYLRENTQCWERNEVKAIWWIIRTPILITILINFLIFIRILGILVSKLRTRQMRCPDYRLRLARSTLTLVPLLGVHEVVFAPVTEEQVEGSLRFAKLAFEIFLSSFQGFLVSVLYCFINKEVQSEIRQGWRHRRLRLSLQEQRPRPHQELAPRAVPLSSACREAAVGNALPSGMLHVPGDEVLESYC
The experiment in a line: cell-based.

The target of another assay is T2, mouse GLP-1 receptor (Mus musculus, UniProt O35659).
T2 sequence (O35659 22-463): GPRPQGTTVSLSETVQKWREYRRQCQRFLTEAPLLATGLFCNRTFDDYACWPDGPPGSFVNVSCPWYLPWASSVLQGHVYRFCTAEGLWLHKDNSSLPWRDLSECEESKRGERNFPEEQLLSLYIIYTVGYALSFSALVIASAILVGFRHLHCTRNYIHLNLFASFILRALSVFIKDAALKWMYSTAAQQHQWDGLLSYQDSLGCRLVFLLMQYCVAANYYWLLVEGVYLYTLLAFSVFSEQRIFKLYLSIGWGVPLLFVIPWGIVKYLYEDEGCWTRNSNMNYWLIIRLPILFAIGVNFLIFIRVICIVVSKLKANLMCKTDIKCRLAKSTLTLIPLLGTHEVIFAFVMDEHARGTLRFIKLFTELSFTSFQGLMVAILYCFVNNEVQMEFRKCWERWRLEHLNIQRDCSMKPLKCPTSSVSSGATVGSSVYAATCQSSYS

The structures appear in SMILES notation. Starred links: 1 amine or outer side, 2 acyl side, 3 side chain; linkers in the order of their positions; H or OH if unused. Non-standard residues stand in square brackets, D forms with d. Residues, ends and D or L forms follow the SMILES beside them. Groups on a side chain read outwards from the residue. *: point of attachment. C18 diacid = O=C(O)CCCCCCCCCCCCCCCCC(=O)*; γGlu = O=C(O)[C@H](CCC(=O)[*:2])N[*:1]; εLys = N[C@@H](CCCCN[*:1])C(=O)[*:2]; AEEA = NCCOCCOCC(=O)O; Aib = CC(C)(N)C(=O)O

human GLP-1 receptor, sequence (P43220 24-463): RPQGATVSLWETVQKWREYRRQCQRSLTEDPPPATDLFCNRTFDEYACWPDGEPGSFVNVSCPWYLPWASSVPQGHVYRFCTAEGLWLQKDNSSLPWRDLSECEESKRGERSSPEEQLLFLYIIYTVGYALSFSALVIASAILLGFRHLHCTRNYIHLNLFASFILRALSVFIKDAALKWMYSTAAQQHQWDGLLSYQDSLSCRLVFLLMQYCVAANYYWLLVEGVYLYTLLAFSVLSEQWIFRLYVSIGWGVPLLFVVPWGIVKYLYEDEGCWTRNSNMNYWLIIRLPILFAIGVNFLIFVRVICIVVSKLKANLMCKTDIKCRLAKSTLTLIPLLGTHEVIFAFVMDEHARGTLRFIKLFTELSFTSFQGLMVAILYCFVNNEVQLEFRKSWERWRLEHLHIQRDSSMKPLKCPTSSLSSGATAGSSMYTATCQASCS
Experimental for human GLP-1 receptor: (§1) The in vitro functional potency is the measure of target receptor activation in a whole cell assay.
(§2) In vitro functional potency was determined by measuring the response of the target receptor in a reporter gene assay in individual cell lines. […] When the respective receptor is activated, it results in the production of cAMP, which in turn results in expression of the luciferase protein. When assay incubation is completed, luciferase substrate (luciferin) is added resulting in the enzymatic conversion of luciferin to oxyluciferin and producing bioluminescence. The luminescence is measured as the readout for the assay.
(§3) The cells lines used in these assays were BHK cells with BHKTS13 as a parent cell line. The cell lines were derived from a clone containing the CRE luciferase element and were established by further transfection with the respective receptor to obtain the relevant cell line.
(§4) The cells were cultured at 37° C. with 5% CO2 in Cell Culture Medium. They were aliquoted and stored in liquid nitrogen. The cells were kept in continuous culture and were seeded out the day before each assay.
(§5) GLP-1R and GcgR Cell Culture Medium consisted of DMEM medium with 10% FBS, 500 μg/mL G418, and 300 μg/mL hygromycin. GIPR Cell Culture Medium consisted of DMEM medium with 10% FBS, 400 μg/mL G418, and 300 μg/mL hygromycin. Assay Buffer consisted of DMEM w/o phenol red, 10 mM Hepes, 1×Glutamax, 1% ovalbumin, and 0.1% Pluronic F-68 with the addition of HSA at twice the final assay concentration.
(§6) • 1) Cells were plated at 5000 cells/well and incubated overnight in the assay plate. • 2) Cells were washed once in DPBS. • 3) Stocks of the test compounds and reference compounds in concentrations ranging from 100-300 μM were diluted 1:150 in Assay Buffer. Compounds were then diluted 1:10 in column 1 of a 96 deep well dilution plate and then carried across the row creating a 3.5 fold, 12 point dilution curve. • 4) Assay Buffer (50 μl aliquot) with or without HSA was added to each well in the assay plate. • 5) A 50 μl aliquot of compound or blank was transferred from the dilution plate to the assay plate containing the Assay Buffer with or without HSA. • 6) The assay plate was incubated for 3 h in a 5% CO2 incubator at 37° C. 7) The cells were washed once with DPBS. • 8) A 100 μl aliquot of DPBS was added to each well of the assay plate. • 9) A 100 μl aliquot of steadylite plus reagent (light sensitive) was added to each well of the assay plate. • 10) Each assay plate was covered with aluminum foil to protect it from light and shaken at 250 RPM for 30 min at room temperature. • 11) Each assay plate was read in a microtiter plate reader.
(§7) The data from the microtiter plate reader was first regressed in an Excel in order to calculate the x-axis, log scale concentrations based on the individual test compound's stock concentration and the dilutions of the assay. […] The software performs a non-linear regression (log(agonist) vs response). A minimum of two replicates was measured for each sample. The reported values are averages of the replicates.
Experimental for mouse GIP receptor: as §1, §2, §3, §4, §5, §6, §7

As to `CC[C@H](C)[C@H](NC(=O)[C@H](CO)NC(=O)[C@H](Cc1ccc(O)cc1)NC(=O)[C@H](CC(=O)O)NC(=O)[C@H](CO)NC(=O)[C@@H](NC(=O)[C@H](Cc1ccccc1)NC(=O)[C@@H](NC(=O)CNC(=O)[C@H](CCC(=O)O)NC(=O)C(C)(C)NC(=O)[C@@H](N)Cc1ccc(O)cc1)[C@@H](C)O)[C@@H](C)O)C(=O)N[C@@H](Cc1ccc(O)cc1)C(=O)N[C@@H](CC(C)C)C(=O)N[C@@H](CC(=O)O)C(=O)N[C@@H](CCCCN)C(=O)N[C@@H](CCC(N)=O)C(=O)N[C@@H](C)C(=O)N[C@@H](C)C(=O)NC(C)(C)C(=O)N[C@@H](CCC(=O)O)C(=O)N[C@@H](Cc1ccccc1)C(=O)N[C@H](C(=O)N[C@@H](CC(N)=O)C(=O)N[C@@H](Cc1c[nH]c2ccccc12)C(=O)N[C@@H](CC(C)C)C(=O)N[C@@H](CC(C)C)C(=O)N[C@@H](C)C(=O)NCC(=O)NCC(=O)N1CCC[C@H]1C(=O)N[C@@H](CO)C(=O)N[C@@H](CO)C(=O)NCC(=O)N[C@@H](C)C(=O)N1CCC[C@H]1C(=O)N1CCC[C@H]1C(=O)N1CCC[C@H]1C(=O)N[C@@H](CO)C(=O)N[C@@H](CCCCNC(=O)CCCCCCCCCCCCCCCCC(=O)O)C(N)=O)C(C)C` [Compound 2], the EC50 – broadly, the concentration at which the effect is half-maximal – on human GLP-1 receptor (CRE Luc 0% HSA EC50, 0% HSA) came to 0.0675 nM; on human GLP-1 receptor (CRE Luc 1% HSA EC50, 1% HSA), 0.439 nM.
Taken in the same sequence, the figures for `CC[C@H](C)[C@H](NC(=O)[C@H](CO)NC(=O)[C@H](Cc1ccc(O)cc1)NC(=O)[C@H](CC(=O)O)NC(=O)[C@H](CO)NC(=O)[C@@H](NC(=O)[C@H](Cc1ccccc1)NC(=O)[C@@H](NC(=O)CNC(=O)[C@H](CCC(=O)O)NC(=O)C(C)(C)NC(=O)[C@@H](N)Cc1ccc(O)cc1)[C@@H](C)O)[C@@H](C)O)C(=O)N[C@@H](Cc1ccc(O)cc1)C(=O)N[C@@H](CC(C)C)C(=O)N[C@@H](CC(=O)O)C(=O)N[C@@H](CCCCN)C(=O)N[C@@H](CCC(N)=O)C(=O)N[C@@H](C)C(=O)N[C@@H](C)C(=O)NC(C)(C)C(=O)N[C@@H](CCC(=O)O)C(=O)N[C@@H](Cc1ccccc1)C(=O)N[C@H](C(=O)N[C@@H](CC(N)=O)C(=O)N[C@@H](Cc1c[nH]c2ccccc12)C(=O)N[C@@H](CC(C)C)C(=O)N[C@@H](CC(C)C)C(=O)N[C@@H](C)C(=O)NCC(=O)NCC(=O)N1CCC[C@H]1C(=O)N[C@@H](CO)C(=O)N[C@@H](CO)C(=O)NCC(=O)N[C@@H](C)C(=O)N1CCC[C@H]1C(=O)N1CCC[C@H]1C(=O)N1CCC[C@H]1C(=O)N[C@@H](CO)C(=O)N[C@@H](CCCCNC(=O)COCCOCCNC(=O)COCCOCCNC(=O)CC[C@H](NC(=O)CCCCCCCCCCCCCCCCC(=O)O)C(=O)O)C(N)=O)C(C)C` [Compound 3] were 0.0134 nM and 0.606 nM.
With `CC[C@H](C)[C@H](NC(=O)[C@H](CO)NC(=O)[C@H](Cc1ccc(O)cc1)NC(=O)[C@H](CC(=O)O)NC(=O)[C@H](CO)NC(=O)[C@@H](NC(=O)[C@H](Cc1ccccc1)NC(=O)[C@@H](NC(=O)CNC(=O)[C@H](CCC(=O)O)NC(=O)C(C)(C)NC(=O)[C@@H](N)Cc1ccc(O)cc1)[C@@H](C)O)[C@@H](C)O)C(=O)N[C@@H](Cc1ccc(O)cc1)C(=O)N[C@@H](CC(C)C)C(=O)N[C@@H](CC(=O)O)C(=O)N[C@@H](CCCCN)C(=O)N[C@@H](CCCCNC(=O)COCCOCCNC(=O)COCCOCCNC(=O)CC[C@H](NC(=O)CCCCCCCCCCCCCCCCC(=O)O)C(=O)O)C(=O)N[C@@H](C)C(=O)N[C@@H](C)C(=O)NC(C)(C)C(=O)N[C@@H](CCC(=O)O)C(=O)N[C@@H](Cc1ccccc1)C(=O)N[C@H](C(=O)N[C@@H](CC(N)=O)C(=O)N[C@@H](Cc1c[nH]c2ccccc12)C(=O)N[C@@H](CC(C)C)C(=O)N[C@@H](CC(C)C)C(=O)N[C@@H](C)C(=O)NCC(=O)NCC(=O)N1CCC[C@H]1C(=O)N[C@@H](CO)C(=O)N[C@@H](CO)C(=O)NCC(=O)N[C@@H](C)C(=O)N1CCC[C@H]1C(=O)N1CCC[C@H]1C(=O)N1CCC[C@H]1C(=O)N[C@@H](CO)C(N)=O)C(C)C` [Compound 4] (H-Y[Aib]EGTFTSDYSIYLDKK([AEEA-AEEA-γGlu-C18 diacid])AA[Aib]EFVNWLLAGGPSSGAPPPS-NH2; N-terminus assumed), the half-maximal effective concentration (EC50) is 0.0106 nM on human GLP-1 receptor (CRE Luc 0% HSA EC50, 0% HSA); 0.232 nM at human GLP-1 receptor (CRE Luc 1% HSA EC50, 1% HSA); 1.55 nM at mouse GIP receptor; 0.0039 nM at mouse GLP-1 receptor.
Taken in the same sequence, the figures for `CC[C@H](C)[C@H](NC(=O)[C@H](CO)NC(=O)[C@H](Cc1ccc(O)cc1)NC(=O)[C@H](CC(=O)O)NC(=O)[C@H](CO)NC(=O)[C@@H](NC(=O)[C@H](Cc1ccccc1)NC(=O)[C@@H](NC(=O)CNC(=O)[C@H](CCC(=O)O)NC(=O)C(C)(C)NC(=O)[C@@H](N)Cc1ccc(O)cc1)[C@@H](C)O)[C@@H](C)O)C(=O)N[C@@H](Cc1ccc(O)cc1)C(=O)N[C@@H](CC(C)C)C(=O)N[C@@H](CC(=O)O)C(=O)N[C@@H](CCCCN)C(=O)N[C@@H](CCC(N)=O)C(=O)N[C@@H](C)C(=O)N[C@@H](C)C(=O)NC(C)(C)C(=O)N[C@@H](CCCCNC(=O)COCCOCCNC(=O)COCCOCCNC(=O)CC[C@H](NC(=O)CCCCCCCCCCCCCCCCC(=O)O)C(=O)O)C(=O)N[C@@H](Cc1ccccc1)C(=O)N[C@H](C(=O)N[C@@H](CC(N)=O)C(=O)N[C@@H](Cc1c[nH]c2ccccc12)C(=O)N[C@@H](CC(C)C)C(=O)N[C@@H](CC(C)C)C(=O)N[C@@H](C)C(=O)NCC(=O)NCC(=O)N1CCC[C@H]1C(=O)N[C@@H](CO)C(=O)N[C@@H](CO)C(=O)NCC(=O)N[C@@H](C)C(=O)N1CCC[C@H]1C(=O)N1CCC[C@H]1C(=O)N1CCC[C@H]1C(=O)N[C@@H](CO)C(N)=O)C(C)C` [Compound 5] (H-Y[Aib]EGTFTSDYSIYLDKQAA[Aib]K([AEEA-AEEA-γGlu-C18 diacid])FVNWLLAGGPSSGAPPPS-NH2; N-terminus assumed) were 0.0092 nM, 0.161 nM, 0.523 nM and 0.0025 nM.
As for `CC[C@H](C)[C@H](NC(=O)[C@H](CO)NC(=O)[C@H](Cc1ccc(O)cc1)NC(=O)[C@H](CC(=O)O)NC(=O)[C@H](CO)NC(=O)[C@@H](NC(=O)[C@H](Cc1ccccc1)NC(=O)[C@@H](NC(=O)CNC(=O)[C@H](CCC(=O)O)NC(=O)C(C)(C)NC(=O)[C@@H](N)Cc1ccc(O)cc1)[C@@H](C)O)[C@@H](C)O)C(=O)N[C@@H](Cc1ccc(O)cc1)C(=O)N[C@@H](CC(C)C)C(=O)N[C@@H](CC(=O)O)C(=O)N[C@@H](CCCCN)C(=O)N[C@@H](CCC(N)=O)C(=O)N[C@@H](C)C(=O)N[C@@H](C)C(=O)NC(C)(C)C(=O)N[C@@H](CCCCNC(=O)CC[C@H](NC(=O)CC[C@H](NC(=O)CC[C@H](NC(=O)CCCCCCCCCCCCCCCCC(=O)O)C(=O)O)C(=O)O)C(=O)O)C(=O)N[C@@H](Cc1ccccc1)C(=O)N[C@H](C(=O)N[C@@H](CC(N)=O)C(=O)N[C@@H](Cc1c[nH]c2ccccc12)C(=O)N[C@@H](CC(C)C)C(=O)N[C@@H](CC(C)C)C(=O)N[C@@H](C)C(=O)NCC(=O)NCC(=O)N1CCC[C@H]1C(=O)N[C@@H](CO)C(=O)N[C@@H](CO)C(=O)NCC(=O)N[C@@H](C)C(=O)N1CCC[C@H]1C(=O)N1CCC[C@H]1C(=O)N1CCC[C@H]1C(=O)N[C@@H](CO)C(N)=O)C(C)C` [Compound 6] (H-Y[Aib]EGTFTSDYSIYLDKQAA[Aib]K([γGlu-γGlu-γGlu-C18 diacid])FVNWLLAGGPSSGAPPPS-NH2; N-terminus assumed), the EC50 at human GLP-1 receptor (CRE Luc 0% HSA EC50, 0% HSA) was found to be 0.0059 nM; at mouse GLP-1 receptor it was 0.0023 nM.
As to `CC[C@H](C)[C@H](NC(=O)[C@H](CO)NC(=O)[C@H](Cc1ccc(O)cc1)NC(=O)[C@H](CC(=O)O)NC(=O)[C@H](CO)NC(=O)[C@@H](NC(=O)[C@H](Cc1ccccc1)NC(=O)[C@@H](NC(=O)CNC(=O)[C@H](CCC(=O)O)NC(=O)[C@H](C)NC(=O)[C@@H](Cc1ccc(O)cc1)NC(C)=O)[C@@H](C)O)[C@@H](C)O)C(=O)N[C@@H](Cc1ccc(O)cc1)C(=O)N[C@@H](CC(C)C)C(=O)N[C@@H](CC(=O)O)C(=O)N[C@@H](CCCCN)C(=O)N[C@@H](CCC(N)=O)C(=O)N[C@@H](C)C(=O)N[C@@H](C)C(=O)NC(C)(C)C(=O)N[C@@H](CCCCNC(=O)[C@@H](N)CCCCNC(=O)[C@@H](N)CCCCNC(=O)CC[C@H](NC(=O)CCCCCCCCCCCCCCCCC(=O)O)C(=O)O)C(=O)N[C@@H](Cc1ccccc1)C(=O)N[C@H](C(=O)N[C@@H](CC(N)=O)C(=O)N[C@@H](Cc1c[nH]c2ccccc12)C(=O)N[C@@H](CC(C)C)C(=O)N[C@@H](CC(C)C)C(=O)N[C@@H](C)C(=O)NCC(=O)NCC(=O)N1CCC[C@H]1C(=O)N[C@@H](CO)C(=O)N[C@@H](CO)C(=O)NCC(=O)N[C@@H](C)C(=O)N1CCC[C@H]1C(=O)N1CCC[C@H]1C(=O)N1CCC[C@H]1C(=O)N[C@@H](CO)C(N)=O)C(C)C` [Compound 8] (Ac-[dY]AEGTFTSDYSIYLDKQAA[Aib]K([εLys-εLys-γGlu-C18 diacid])FVNWLLAGGPSSGAPPPS-NH2), at mouse GLP-1 receptor, the EC50 was 0.017 nM.
